ChEMBL document CHEMBL3217712, “Improved biodistribution, pharmacokinetics and photodynamic efficacy using a new photostable sulfonamide bacteriochlorin” (Medchemcomm, 2012)

Tested on: S91
Assay: Photodynamic efficacy against mouse Cloudman S91 cells allografted in DBA mouse assessed as time of tumor growth delay at 2 mg/kg, iv followed by irradiated with 70 mW cm'-2 diode laser light for 25 mins
Type: functional

## O=S(=O)(O)c1ccc(Cl)c(-c2c3nc(c(-c4cc(S(=O)(=O)O)ccc4Cl)c4ccc([nH]4)c(-c4cc(S(=O)(=O)O)ccc4Cl)c4nc(c(-c5cc(S(=O)(=O)O)ccc5Cl)c5ccc2[nH]5)CC4)C=C3)c1
  Time: 29 days
